Data: patent US9695155B2, “Herbicidal substituted pyrimidinyloxy benzene compounds” (E. I. DU PONT DE NEMOURS AND COMPANY, priority 2013, dated 2017)

What was measured:
giant foxtail [1] = assay: Test A postemergence; type: in vivo, Setaria faberii; conditions: 0 to 100 scale where 0 is no effect and 100 is complete control
Outline: (§1)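 Visual injury scored 0–100 (100 = complete control) against untreated controls about 10 days after treatment in a greenhouse. Test chemicals, formulated with surfactant in non-phytotoxic solvent, were sprayed on soil preemergence or on 2-10 cm, one- to two-leaf plants postemergence.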

corn [2] = assay: Test A postemergence; type: in vivo, Zea mays; conditions: 0 to 100 scale where 0 is no effect and 100 is complete control
Outline: as §1

corn [3] = assay: Test C preemergence; type: in vivo, Zea mays; conditions: for Corn plant response rating: preemergence; for Plant response rating, Corn: Preemergence, 31 g ai/ha, scale 0 to 100, 0 no effect, 100 complete control
Outline: (§2)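 Seeds are planted in blended loam soil and sand and treated preemergence, while seedlings in a peat moss/vermiculite medium receive postemergence sprays at 2 to 18 cm height. All plants stay in the greenhouse for 13 to 15 days before visual comparison with controls on a 0–100 scale.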

large (Lg) crabgrass = assay: Test C preemergence; type: in vivo, Digitaria sanguinalis; conditions: for Crabgrass, Large plant response rating: preemergence; for Plant response rating, Crabgrass, Large: Preemergence, 31 g ai/ha, scale 0 to 100, 0 no effect, 100 complete control
Outline: as §2

lambsquarters = assay: Test C preemergence; type: in vivo, Chenopodium album; conditions: for Lambsquarters plant response rating: preemergence; for Plant response rating, Lambsquarters: Preemergence, 31 g ai/ha, scale 0 to 100, 0 no effect, 100 complete control
Outline: as §2

pigweed = assay: Test C preemergence; type: in vivo, Amaranthus retroflexus; conditions: for Pigweed plant response rating: preemergence; for Plant response rating, Pigweed: Preemergence, 31 g ai/ha, scale 0 to 100, 0 no effect, 100 complete control
Outline: as §2

blackgrass = assay: Test C postemergence; type: in vivo, Alopecurus myosuroides; conditions: for Blackgrass plant response rating: 16 g ai/ha, visual rating; for Blackgrass plant response rating / Plant response rating (0 to 100), Blackgrass: postemergence; for Blackgrass plant response rating / Plant response rating, Blackgrass: scale 0 to 100 (0 no effect, 100 complete control); for Plant response rating (0 to 100), Blackgrass: 125 g ai/ha; for Plant response rating, Blackgrass: Postemergence
Outline: as §2

wheat, winter = assay: Test C postemergence; type: in vivo, Triticum aestivum; conditions: for Plant response rating (0 to 100), Wheat: 125 g ai/ha, postemergence; for Plant response rating, Wheat: Postemergence, scale 0 to 100 (0 no effect, 100 complete control)
Outline: as §2

corn [4] = assay: Test C postemergence; type: in vivo, Zea mays; conditions: for Corn plant response rating: 16 g ai/ha, visual rating; for Corn plant response rating / Plant response rating (0 to 100), Corn: postemergence; for Corn plant response rating / Plant response rating, Corn: scale 0 to 100 (0 no effect, 100 complete control); for Plant response rating (0 to 100), Corn: 125 g ai/ha; for Plant response rating, Corn: Postemergence
Outline: as §2

giant foxtail [5] = assay: Test C postemergence; type: in vivo, Setaria faberii; conditions: for Foxtail, Giant plant response rating: 16 g ai/ha, visual rating; for Foxtail, Giant plant response rating / Plant response rating (0 to 100), Foxtail, Giant: postemergence; for Foxtail, Giant plant response rating / Plant response rating, Foxtail, Giant: scale 0 to 100 (0 no effect, 100 complete control); for Plant response rating (0 to 100), Foxtail, Giant: 125 g ai/ha; for Plant response rating, Foxtail, Giant: Postemergence
Outline: as §2

yellow nutsedge = assay: Test C postemergence; type: in vivo, Cyperus esculentus; conditions: for Plant response rating (0 to 100), Nutsedge, Yellow: 125 g ai/ha, postemergence; for Plant response rating, Nutsedge, Yellow: Postemergence, scale 0 to 100 (0 no effect, 100 complete control)
Outline: as §2

barnyardgrass = assay: Test C postemergence; type: in vivo, Echinochloa crus-galli; conditions: for Barnyardgrass plant response rating: 16 g ai/ha, visual rating; for Barnyardgrass plant response rating / Plant response rating (0 to 100), Barnyardgrass: postemergence; for Barnyardgrass plant response rating / Plant response rating, Barnyardgrass: scale 0 to 100 (0 no effect, 100 complete control); for Plant response rating (0 to 100), Barnyardgrass: 125 g ai/ha; for Plant response rating, Barnyardgrass: Postemergence
Outline: as §2

kochia = assay: Test C postemergence; type: in vivo, Kochia scoparia; conditions: for Kochia plant response rating: 16 g ai/ha, visual rating; for Kochia plant response rating / Plant response rating (0 to 100), Kochia: postemergence; for Kochia plant response rating / Plant response rating, Kochia: scale 0 to 100 (0 no effect, 100 complete control); for Plant response rating (0 to 100), Kochia: 125 g ai/ha; for Plant response rating, Kochia: Postemergence
Outline: as §2

[6] = 16 g ai/ha, scale 0 to 100 (0 no effect, 100 complete control)
[7] = 62 g ai/ha, scale 0 (no effect) to 100 (complete control)
[8] = 125 g ai/ha, scale 0 (no effect) to 100 (complete control)

In the case of `N#Cc1cccc(Oc2ncc(F)cn2)c1-n1cc(I)cn1` [Compound 86], the “Plant response rating, Foxtail, Giant” value (giant foxtail [1]; 125 g ai/ha) was 90, the “Plant response rating, Foxtail, Giant” value (giant foxtail [1]; 500 g ai/ha) was 100 and the “Plant response rating, Corn” value (corn [2]; 125 g ai/ha) was 50. The “Plant response rating, Corn” value (corn [2]; 500 g ai/ha) was 100, the “Corn plant response rating” value (corn [3]; [6]) was 0 and the “Corn plant response rating” value (corn [3]; [7]) was 30. The “Corn plant response rating” value (corn [3]; [8]) was 80, the “Plant response rating, Corn” value (corn [3]) was 25 and the “Crabgrass, Large plant response rating” value (large (Lg) crabgrass; [6]) was 85. For the same compound, the “Crabgrass, Large plant response rating” value (large (Lg) crabgrass; [7]) was 100, the “Crabgrass, Large plant response rating” value (large (Lg) crabgrass; [8]) was 100 and the “Plant response rating, Crabgrass, Large” value (large (Lg) crabgrass) was 100. The “Lambsquarters plant response rating” value (lambsquarters; [6]) was 100, the “Lambsquarters plant response rating” value (lambsquarters; [7]) was 100 and the “Lambsquarters plant response rating” value (lambsquarters; [8]) was 100. The “Plant response rating, Lambsquarters” value (lambsquarters) was 100, the “Pigweed plant response rating” value (pigweed; [6]) was 90 and the “Pigweed plant response rating” value (pigweed; [7]) was 100. For the same compound, the “Pigweed plant response rating” value (pigweed; [8]) was 100, the “Plant response rating, Pigweed” value (pigweed) was 100 and the “Blackgrass plant response rating” value (blackgrass; 13 to 15 days) was 5. The “Plant response rating (0 to 100), Blackgrass” value (blackgrass) was 10, the “Plant response rating, Blackgrass” value (blackgrass; 31 g ai/ha, 13 to 15 days) was 5 and the “Plant response rating, Blackgrass” value (blackgrass; 62 g ai/ha) was 5. For the same compound, the “Plant response rating (0 to 100), Wheat” value (wheat, winter) was 0, the “Plant response rating, Wheat” value (wheat, winter; 31 g ai/ha, 13 to 15 days) was 0 and the “Plant response rating, Wheat” value (wheat, winter; 62 g ai/ha) was 0. For the same compound, the “Corn plant response rating” value (corn [4]; 13 to 15 days) was 5, the “Plant response rating (0 to 100), Corn” value (corn [4]) was 10 and the “Plant response rating, Corn” value (corn [4]; 31 g ai/ha, 13 to 15 days) was 5. The “Plant response rating, Corn” value (corn [4]; 62 g ai/ha) was 5, the “Foxtail, Giant plant response rating” value (giant foxtail [5]; 13 to 15 days) was 5 and the “Plant response rating (0 to 100), Foxtail, Giant” value (giant foxtail [5]) was 25. For the same compound, the “Plant response rating, Foxtail, Giant” value (giant foxtail [5]; 31 g ai/ha, 13 to 15 days) was 5, the “Plant response rating, Foxtail, Giant” value (giant foxtail [5]; 62 g ai/ha) was 15 and the “Plant response rating (0 to 100), Nutsedge, Yellow” value (yellow nutsedge) was 5. The “Plant response rating, Nutsedge, Yellow” value (yellow nutsedge; 31 g ai/ha, 13 to 15 days) was 0, the “Plant response rating, Nutsedge, Yellow” value (yellow nutsedge; 62 g ai/ha) was 5 and the “Barnyardgrass plant response rating” value (barnyardgrass; 13 to 15 days) was 0. The “Plant response rating (0 to 100), Barnyardgrass” value (barnyardgrass) was 5, the “Plant response rating, Barnyardgrass” value (barnyardgrass; 31 g ai/ha, 13 to 15 days) was 5 and the “Plant response rating, Barnyardgrass” value (barnyardgrass; 62 g ai/ha) was 5. The “Kochia plant response rating” value (kochia; 13 to 15 days) was 50, the “Plant response rating (0 to 100), Kochia” value (kochia) was 95 and the “Plant response rating, Kochia” value (kochia; 31 g ai/ha, 13 to 15 days) was 60. The “Plant response rating, Kochia” value (kochia; 62 g ai/ha) was 90.
With `N#Cc1cccc(Oc2ncc(Br)cn2)c1-n1cc(I)cn1` [Compound 88] the “Plant response rating, Foxtail, Giant” value (giant foxtail [1]; 125 g ai/ha) was 50, the “Plant response rating, Foxtail, Giant” value (giant foxtail [1]; 500 g ai/ha) was 80 and the “Plant response rating, Corn” value (corn [2]; 125 g ai/ha) was 30. The “Plant response rating, Corn” value (corn [2]; 500 g ai/ha) was 50, the “Corn plant response rating” value (corn [3]; [6]) was 5 and the “Corn plant response rating” value (corn [3]; [7]) was 5. The “Corn plant response rating” value (corn [3]; [8]) was 15, the “Plant response rating, Corn” value (corn [3]) was 5 and the “Crabgrass, Large plant response rating” value (large (Lg) crabgrass; [6]) was 45. For the same compound, the “Crabgrass, Large plant response rating” value (large (Lg) crabgrass; [7]) was 100, the “Crabgrass, Large plant response rating” value (large (Lg) crabgrass; [8]) was 100 and the “Plant response rating, Crabgrass, Large” value (large (Lg) crabgrass) was 70. For the same compound, the “Lambsquarters plant response rating” value (lambsquarters; [6]) was 70, the “Lambsquarters plant response rating” value (lambsquarters; [7]) was 100 and the “Lambsquarters plant response rating” value (lambsquarters; [8]) was 100. For the same compound, the “Plant response rating, Lambsquarters” value (lambsquarters) was 100, the “Pigweed plant response rating” value (pigweed; [6]) was 100 and the “Pigweed plant response rating” value (pigweed; [7]) was 100. For the same compound, the “Pigweed plant response rating” value (pigweed; [8]) was 100, the “Plant response rating, Pigweed” value (pigweed) was 100 and the “Blackgrass plant response rating” value (blackgrass; 13 to 15 days) was 5. For the same compound, the “Plant response rating (0 to 100), Blackgrass” value (blackgrass) was 10, the “Plant response rating, Blackgrass” value (blackgrass; 31 g ai/ha, 13 to 15 days) was 10 and the “Plant response rating, Blackgrass” value (blackgrass; 62 g ai/ha) was 10. For the same compound, the “Plant response rating (0 to 100), Wheat” value (wheat, winter) was 5, the “Plant response rating, Wheat” value (wheat, winter; 31 g ai/ha, 13 to 15 days) was 5 and the “Plant response rating, Wheat” value (wheat, winter; 62 g ai/ha) was 5. The “Corn plant response rating” value (corn [4]; 13 to 15 days) was 5, the “Plant response rating (0 to 100), Corn” value (corn [4]) was 10 and the “Plant response rating, Corn” value (corn [4]; 31 g ai/ha, 13 to 15 days) was 10. The “Plant response rating, Corn” value (corn [4]; 62 g ai/ha) was 10, the “Foxtail, Giant plant response rating” value (giant foxtail [5]; 13 to 15 days) was 20 and the “Plant response rating (0 to 100), Foxtail, Giant” value (giant foxtail [5]) was 40. For the same compound, the “Plant response rating, Foxtail, Giant” value (giant foxtail [5]; 31 g ai/ha, 13 to 15 days) was 35, the “Plant response rating, Foxtail, Giant” value (giant foxtail [5]; 62 g ai/ha) was 30 and the “Plant response rating (0 to 100), Nutsedge, Yellow” value (yellow nutsedge) was 10. The “Plant response rating, Nutsedge, Yellow” value (yellow nutsedge; 31 g ai/ha, 13 to 15 days) was 5, the “Plant response rating, Nutsedge, Yellow” value (yellow nutsedge; 62 g ai/ha) was 10 and the “Barnyardgrass plant response rating” value (barnyardgrass; 13 to 15 days) was 5. For the same compound, the “Plant response rating (0 to 100), Barnyardgrass” value (barnyardgrass) was 10, the “Plant response rating, Barnyardgrass” value (barnyardgrass; 31 g ai/ha, 13 to 15 days) was 5 and the “Plant response rating, Barnyardgrass” value (barnyardgrass; 62 g ai/ha) was 5. For the same compound, the “Kochia plant response rating” value (kochia; 13 to 15 days) was 90, the “Plant response rating (0 to 100), Kochia” value (kochia) was 100 and the “Plant response rating, Kochia” value (kochia; 31 g ai/ha, 13 to 15 days) was 95. The “Plant response rating, Kochia” value (kochia; 62 g ai/ha) was 95.
